Test results taken from patent publication US20250346550A1, “METHODS OF MODULATING ENDONUCLEASE G USING RESVERATROL AND ITS DERIVATIVES” (THE REGENTS OF THE UNIVERSITY OF COLORADO A BODY CORPORATE, priority 2022, published 2025).

Tests used:
[1] = test system: paternal mitochondrial elimination (PME) in C. elegans wild-type (N2) cross-fertilized embryos; assay: PME fluorescent microscopy assay (MTR-stained paternal mitochondrial clusters), N2 males x N2 hermaphrodites; assay type: in vivo; conditions: for effect on PME in the screen: compound 100 μM, 64-cell stage embryos (FIG. 1a)
Procedure: FIG. 1. […] The numbers of MTR-stained paternal mitochondrial clusters in 64-cell cross-fertilized embryos from mating of MTR-stained N2 males with N2 hermaphrodites in the presence of the indicated compounds (100 μM) were scored. n≥15 embryos for each compound. b, d-g, Quantification of MTR-stained paternal mitochondrial clusters in 64-cell stage embryos (b, d-f) or in embryos at the indicated stage (g) from the cross between MTR-stained N2 males and N2 hermaphrodites, in the presence of 0.25% ethanol (Mock) or 50 μM of the indicated compound. In each experiment, n>40 embryos (b,d,e), n=20 embryos (f), and n≥10 embryos (g) were scored, respectively. […] Data are mean±s.e.m. **P<0.01, ***P<0.001; n.s., not significant, two-sided, unpaired t-test.
FIG. 7. Effects of different dosages of resveratrol isomers on PME. a, b, The effects of different dosages of cis-resveratrol (a) and trans-resveratrol (b) on PME. The numbers of MTR-stained paternal mitochondrial clusters in 64-cell embryos (a) or 16-cell embryos (b) from mating of MTR-stained N2 males with N2 hermaphrodites in the presence of the indicated concentrations of resveratrol isomers were scored. […] N2 hermaphrodites and MTR-stained uaDf5/+ males were mated as indicated in the presence of 0.25% ethanol (Mock, d), 50 μM trans-resveratrol (e), or 50 μM cis-resveratrol (f). Males also carried smIs42, an integrated Psur-5sur-5::gfp transgene, which directs GFP expression in all somatic cells in most developmental stages, and was used to track cross progeny. A single cross-fertilized embryo or larva (MTR- or GFP-positive) at the indicated stage was analyzed by PCR. uaDf5/+ and N2 hermaphrodites were controls.
FIG. 12. […] Quantification of MTR-stained paternal mitochondrial clusters at the indicated embryonic stages from the cross between MTR-stained N2 males and N2 hermaphrodites, in the presence of 0.25% ethanol (Mock) or 50 μM of the indicated compound. In each experiment, n≥10 embryos embryos. Data are mean±s.e.m. **P<0.01, ***P<0.001; n.s., not significant, two-sided, unpaired t-test.
Following fertilization, paternal mitochondria are rapidly depolarized and damaged in fertilized eggs, which could generate and release reactive oxygen species (ROS) that affect PME and embryo development. We thus screened twelve small molecules derived from natural products that have been used as antioxidants for the potential activity in modulating PME (FIG. 6a), using a fluorescent microscopy assay. In this assay, C. elegans wild-type (N2) males prestained with Mitotracker Red (MTR), a mitochondrion-specific fluorescent dye, were mated with unstained N2 hermaphrodites in the presence of the compound of interest ([…]) and the cross-fertilized embryos were examined for the presence of MTR-stained paternal mitochondria or mitochondrial clusters.

[2] = test system: PME defect of cps-6(tm3222) embryos; assay: PME microscopy assay in cps-6(tm3222) crosses; assay type: in vivo, C. elegans; conditions: 64-cell embryos, scored as in FIG. 1a (FIG. 6b); DMSO control average of 17 clusters
Text: (§1) The numbers of MTR-stained paternal mitochondrial clusters were scored as in FIG. 1a. cps-6(tm3222) and lgg-1(bp523) alleles were used in the assays. Data are mean±s.e.m. n=20 embryos (b) and 15 embryos (c) in each experiment. **P<0.01; ***P<0.001; n.s., not significant, two-sided, unpaired t-test.
(§2) To investigate how these six compounds might affect PME, the present inventors performed chemical genetic analysis to analyze the PME pathways that might be affected by the compounds. The present inventors first examined whether they might affect the paternal PME pathway mediated by the mitochondrial endonuclease CPS-6, whose activity is inhibited by oxidation and protected by reducing agents.

[3] = test system: PME defect of lgg-1(bp523) embryos (autophagy pathway); assay: PME microscopy assay in lgg-1(bp523) crosses; assay type: in vivo, C. elegans; conditions: FIG. 6c
Text: as §1, §2

[4] = test system: EndoG; conditions: stated in discussion, no test described; cited from earlier work
[5] = test system: α-synuclein-induced dopaminergic neuronal death in baIn11 animals; assay: α-synuclein-based Parkinson's Disease model, DA neuronal death; assay type: in vivo, C. elegans; conditions: 50 μM, adult day 2 (FIG. 8c)
Text: FIG. 8. […] In each experiment, 300 animals were scored to determine the percentage of animals losing at least one dopaminergic neuron in the head. Data are mean±s.e.m. *P<0.05; ***P<0.001, two-sided, unpaired t-test.
FIG. 13. […] In each experiment, 300 animals were scored to determine the percentage of animals losing at least one of the six dopaminergic neurons in the head. Data are mean±s.e.m. ****P<0.001, two-sided, unpaired t-test.
In addition to PME and apoptosis, EndoG was previously shown to play an important role in mediating dopaminergic (DA) neuronal death induced by expression of human α-synuclein, which is widely considered to be a major proponent of Parkinson's disease. However, the mechanism by which EndoG mediates α-synuclein-induced neurodegeneration is unclear. In a C. elegans α-synuclein-based Parkinson's Disease model, co-expression of GFP and human α-synuclein in C. elegans dopaminergic neurons under the control of the promoter of the dat-1 gene, which encodes a dopamine transporter, from an integrated transgene baIn11 (Pdat-1::gfp/Pdat-1::α-synuclein) caused DA neuronal death in 30% of adult baIn11 animals (FIG. 8a). The cps-6(tm3222) mutation blocked DA neuronal death in adult baIn11 animals (FIG. 8a), confirming that CPS-6 is important for α-synuclein-induced DA neuronal death.

[6] = target: T1, CPS-6 (Caenorhabditis elegans, UniProt Q95NM6); assay: plasmid DNA cleavage assay; assay type: biochemical, C. elegans; conditions: 20 μM
T1 construct: Recombinant CPS-6 protein was incubated with the supercoiled plasmid DNA substrate
T1 sequence (Q95NM6 1-308): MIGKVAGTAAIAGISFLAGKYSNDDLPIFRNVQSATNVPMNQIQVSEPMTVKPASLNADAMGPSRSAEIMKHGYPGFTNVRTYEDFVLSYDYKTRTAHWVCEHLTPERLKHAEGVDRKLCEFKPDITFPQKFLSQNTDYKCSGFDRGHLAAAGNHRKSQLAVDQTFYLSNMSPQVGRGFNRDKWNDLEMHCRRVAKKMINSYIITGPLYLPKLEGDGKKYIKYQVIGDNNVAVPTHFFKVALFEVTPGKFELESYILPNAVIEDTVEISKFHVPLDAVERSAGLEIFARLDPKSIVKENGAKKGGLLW
Procedure: FIG. 3. Resveratrol isomers target CPS-6 to affect PME. a, b, Both cis-resveratrol and trans-resveratrol act paternally to affect PME. The numbers of MTR-stained paternal mitochondrial clusters in embryos at 64-cell (a) or 16-cell (b) stage from the indicated crosses were scored. N2 males or hermaphrodites were pretreated with 0.25% ethanol (Mock), 50 μM cis-resveratrol (a), or 50 μM trans-resveratrol (b) as indicated before mating. c-g, Quantification of MTR-stained paternal mitochondrial clusters in 64-cell embryos from the indicated crosses treated with 0.25% ethanol (Mock), 50 μM cis-resveratrol, and 50 μM trans-resveratrol, respectively. Alleles used are lgg-1(bp523), cps-6(tm3222) and rad-23(tm2595). Data are mean s.e.m; n≥15 embryos (a) and n≥20 embryos (b, c-g) were scored in each experiment. ***P<0.001; n.s., not significant, two-sided, unpaired t-test. h, Resveratrol isomers enhance or inhibit the nuclease activity of CPS-6 in a plasmid DNA cleavage assay. 10 ng of CPS-6 were incubated with 0.25% ethanol (Mock), 20 μM cis-resveratrol, or 20 μM trans-resveratrol in dark at 4° C. for 1.5 hours, before 1 μg of the pPD49.78 plasmid DNA were added to the reactions. After further incubation at 30° C. for 1 hour, the reactions were resolved on a 1% agarose gel. Three different forms of plasmid DNA are indicated.
FIG. 11. Stabilized trans-resveratrol enhances the nuclease activity of CPS-6 in a plasmid DNA cleavage assay and is resistant to UV irradiation. 10 ng of CPS-6 were incubated with 0.25% ethanol (Mock), 20 μM locked trans-resveratrol with or without UV irradiation, 20 μM trans-resveratrol with or without UV irradiation, and 20 μM cis-resveratrol with or without UV irradiation, respectively, in dark at 4° C. for 1.5 hours, before 1 μg of the pPD49.78 plasmid DNA were added to the reactions. After further incubation at 30° C. for 1 hour, the reactions were resolved on a 1% agarose gel. Three different forms of plasmid DNA are indicated. Resveratrol isomers or derivative were subjected to UV irradiation for 3 hours.
Because resveratrol is an antioxidant and the endonuclease activity of CPS-6 is regulated by redox conditions both in vitro and in vivo, we investigated the possibility that resveratrol isomers could directly affect the nuclease activity of CPS-6 using a plasmid DNA cleavage assay. Recombinant CPS-6 protein was incubated with the supercoiled plasmid DNA substrate in the presence or absence of 20 μM trans-resveratrol or cis-resveratrol and the reactions were resolved by an agarose gel. […] Since the nuclease activity of CPS-6 is required for PME, these in vitro results are consistent with the in vivo observations that trans-resveratrol enhances and cis-resveratrol inhibits PME.

Row | SMILES | effect on PME in the screen [1] | effect on PME defect of cps-6(tm3222) embryos, screen compounds [2] | further results
1 | O=C(OC[C@H]1O[C@@H](OC(=O)c2cc(O)c(O)c(OC(=O)c3cc(O)c(O)c(O)c3)c2)[C@H](OC(=O)c2cc(O)c(O)c(OC(=O)c3cc(O)c(O)c(O)c3)c2)[C@@H](OC(=O)c2cc(O)c(O)c(OC(=O)c3cc(O)c(O)c(O)c3)c2)[C@@H]1OC(=O)c1cc(O)c(O)c(OC(=O)c2cc(O)c(O)c(O)c2)c1)c1cc(O)c(O)c(OC(=O)c2cc(O)c(O)c(O)c2)c1 [tannic acid, reference compound] | did not inhibit PME |  | 
2 | O=c1cc(-c2ccccc2)oc2cc(O)c(O)c(O)c12 [baicalein] |  | significantly increased the number of paternal mitochondrial clusters | enhancement of the PME defect in lgg-1 deficient embryos, screen compounds [3]: not
3 | CC1=C(/C=C/C(C)=C/C=C/C(C)=C/C=C/C=C(C)/C=C/C=C(C)/C=C/C2=C(C)C(=O)[C@@H](O)CC2(C)C)C(C)(C)C[C@H](O)C1=O [astaxanthin, reference compound] | did not inhibit PME |  | 
4 | Oc1cc(O)c2c(c1)O[C@H](c1ccc(O)c(O)c1)[C@@H](O)C2 [catechinic acid, reference compound] | did not inhibit PME |  | 
5 | COc1cc(/C=C/C(=O)CC(=O)/C=C/c2ccc(O)c(OC)c2)ccc1O [curcumin] |  | significantly increased the number of paternal mitochondrial clusters | 
6 | C[n+]1ccc(-c2cc[n+](C)cc2)cc1 [paraquat, reference compound] | inhibited PME |  | 
7 | O=c1cc(-c2ccc(O)cc2)oc2cc(O)cc(O)c12 [apigenin] |  | significantly increased the number of paternal mitochondrial clusters | enhancement of the PME defect in lgg-1 deficient embryos, screen compounds [3]: enhanced the PME defect
8 | Nc1nc2ncc(CNc3ccc(C(=O)N[C@@H](CCC(=O)O)C(=O)O)cc3)nc2c(=O)[nH]1 [folic acid, reference compound] | did not inhibit PME |  | 
9 | CC(CC(=O)C[C@@H](C)[C@H]1CC(=O)[C@@]2(C)C3=C(C(=O)C[C@]12C)[C@@]1(C)CC[C@H](O)C(C)(C)[C@@H]1C[C@@H]3O)C(=O)O (stereo partly shown) [ganoderic acid B] |  | significantly increased the number of paternal mitochondrial clusters | enhancement of the PME defect in lgg-1 deficient embryos, screen compounds [3]: enhanced the PME defect
10 | O=C1O[C@H]([C@@H](O)CO)C(O)=C1O [ascorbic acid, reference compound] | did not inhibit PME |  | 
11 | O=c1c(O)c(-c2ccc(O)c(O)c2)oc2cc(O)cc(O)c12 [quercetin] |  | significantly increased the number of paternal mitochondrial clusters | 
12 | N[C@@H](CCC(=O)N[C@@H](CS)C(=O)NCC(=O)O)C(=O)O [glutathione, reference compound] | did not inhibit PME |  | 
13 | Oc1ccc(/C=C/c2cc(O)cc(O)c2)cc1 [resveratrol, 3,5,4′-trihydroxy-trans-stilbene] |  | did not affect the PME defect | affinity of resveratrol to EndoG [4]: nanomolar affinity; enhancement of the PME defect in lgg-1 deficient embryos, screen compounds [3]: enhanced the PME defect
14 | Oc1ccc(/N=C/c2cc(O)cc(O)c2)cc1 |  |  | dynamics of PME at different embryonic stages ([1]; 50 μM vs 0.25% ethanol mock (FIG. 1g, FIG. 12)): identical activity in promoting PME; adult baIn11 animals with neurodegeneration (DA neuronal loss) [5]: 45%; effect on CPS-6 nuclease activity ([6]; 10 ng CPS-6, pPD49.78 plasmid DNA): similarly enhance the endonuclease activity of CPS-6 like trans-resveratrol; effect on CPS-6 nuclease activity after UV irradiation of the compound ([6]; compound UV irradiated for 3 hours (FIG. 11)): did not alter the activity
